From ChEMBL document CHEMBL5465560, “Selectivity Literature for EUbOPEN Chemogenomic Library” (2024)
Each block holds one compound with its values, some of them ahead of it.

Experiments:
[1] = biological target: T1, Interleukin-1 receptor-associated kinase 4 (Homo sapiens) (UniProt Q9NWZ3); assay: Selectivity interaction (Kinase panel (Invitrogen)) EUB0000639a IRAK4; conditions: at 200 nM
T1 sequence (whole entry): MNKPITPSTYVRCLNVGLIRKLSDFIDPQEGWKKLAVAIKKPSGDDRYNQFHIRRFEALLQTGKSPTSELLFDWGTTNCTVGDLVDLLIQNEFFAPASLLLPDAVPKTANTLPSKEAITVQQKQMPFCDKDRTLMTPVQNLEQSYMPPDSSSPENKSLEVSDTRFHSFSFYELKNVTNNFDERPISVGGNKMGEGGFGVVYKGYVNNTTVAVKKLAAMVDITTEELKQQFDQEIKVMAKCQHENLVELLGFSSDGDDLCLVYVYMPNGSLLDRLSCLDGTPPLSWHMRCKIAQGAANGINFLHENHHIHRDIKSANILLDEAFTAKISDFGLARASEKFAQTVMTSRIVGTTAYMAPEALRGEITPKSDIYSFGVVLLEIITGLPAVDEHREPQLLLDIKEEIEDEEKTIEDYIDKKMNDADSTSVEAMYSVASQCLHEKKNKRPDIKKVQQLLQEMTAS

[2] = biological target: T2, Tyrosine-protein kinase Tec (Homo sapiens) (UniProt P42680); conditions: at 10 µM
T2 sequence (whole entry): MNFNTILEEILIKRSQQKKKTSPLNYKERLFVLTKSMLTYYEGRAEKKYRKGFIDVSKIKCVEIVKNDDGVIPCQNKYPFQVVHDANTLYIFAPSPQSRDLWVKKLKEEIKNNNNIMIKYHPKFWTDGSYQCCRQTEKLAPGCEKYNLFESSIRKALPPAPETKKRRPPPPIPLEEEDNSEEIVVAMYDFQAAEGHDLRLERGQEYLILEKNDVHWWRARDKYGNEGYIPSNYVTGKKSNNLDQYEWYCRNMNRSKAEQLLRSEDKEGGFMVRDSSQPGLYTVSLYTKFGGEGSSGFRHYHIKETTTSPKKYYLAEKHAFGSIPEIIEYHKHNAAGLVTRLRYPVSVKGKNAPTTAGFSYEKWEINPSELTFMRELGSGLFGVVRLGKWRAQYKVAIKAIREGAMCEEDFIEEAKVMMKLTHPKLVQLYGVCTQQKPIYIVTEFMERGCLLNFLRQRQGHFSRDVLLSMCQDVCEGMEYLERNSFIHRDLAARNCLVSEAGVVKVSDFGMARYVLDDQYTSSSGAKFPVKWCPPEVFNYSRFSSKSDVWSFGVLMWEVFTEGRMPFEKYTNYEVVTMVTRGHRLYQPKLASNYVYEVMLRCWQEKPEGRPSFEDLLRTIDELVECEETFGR

[3] = biological target: T3, Muscle, skeletal receptor tyrosine-protein kinase (Homo sapiens) (UniProt O15146); assay: Selectivity interaction (KinomeScan (DiscoverX)) EUB0000092b MUSK; conditions: at 10 µM
T3 sequence (whole entry): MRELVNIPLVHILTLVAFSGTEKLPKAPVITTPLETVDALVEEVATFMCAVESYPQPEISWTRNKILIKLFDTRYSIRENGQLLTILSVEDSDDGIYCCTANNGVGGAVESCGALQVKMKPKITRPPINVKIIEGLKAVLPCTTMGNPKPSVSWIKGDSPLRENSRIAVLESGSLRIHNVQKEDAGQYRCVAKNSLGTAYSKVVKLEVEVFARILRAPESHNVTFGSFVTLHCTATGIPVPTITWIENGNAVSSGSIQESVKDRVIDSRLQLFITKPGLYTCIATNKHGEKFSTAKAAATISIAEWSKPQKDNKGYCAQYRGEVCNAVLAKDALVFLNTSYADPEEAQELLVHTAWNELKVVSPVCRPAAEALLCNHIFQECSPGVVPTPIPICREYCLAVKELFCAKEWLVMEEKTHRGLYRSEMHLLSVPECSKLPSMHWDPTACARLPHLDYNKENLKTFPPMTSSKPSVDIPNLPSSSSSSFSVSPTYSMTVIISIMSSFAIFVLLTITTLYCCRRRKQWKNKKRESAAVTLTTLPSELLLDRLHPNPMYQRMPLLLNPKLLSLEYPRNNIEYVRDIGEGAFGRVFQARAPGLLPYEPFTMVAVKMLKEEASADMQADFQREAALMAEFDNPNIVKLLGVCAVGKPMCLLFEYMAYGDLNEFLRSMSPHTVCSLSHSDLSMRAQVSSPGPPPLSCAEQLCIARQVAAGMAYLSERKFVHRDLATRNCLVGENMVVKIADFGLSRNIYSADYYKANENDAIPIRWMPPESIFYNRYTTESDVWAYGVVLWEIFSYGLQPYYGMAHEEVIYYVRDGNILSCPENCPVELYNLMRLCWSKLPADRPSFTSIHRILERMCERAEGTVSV

[4] = biological target: Mitogen-activated protein kinase kinase kinase 10 (Homo sapiens) (UniProt Q02779); assay: Selectivity interaction (KinomeScan (DiscoverX)) EUB0001619a MAP3K10; conditions: at 1 µM
[5] = biological target: T4, Serine/threonine-protein kinase ULK3 (Homo sapiens) (UniProt Q6PHR2); assay: Selectivity interaction (Kinase panel (DSF assay)) EUB0001558a ULK3
T4 sequence (whole entry): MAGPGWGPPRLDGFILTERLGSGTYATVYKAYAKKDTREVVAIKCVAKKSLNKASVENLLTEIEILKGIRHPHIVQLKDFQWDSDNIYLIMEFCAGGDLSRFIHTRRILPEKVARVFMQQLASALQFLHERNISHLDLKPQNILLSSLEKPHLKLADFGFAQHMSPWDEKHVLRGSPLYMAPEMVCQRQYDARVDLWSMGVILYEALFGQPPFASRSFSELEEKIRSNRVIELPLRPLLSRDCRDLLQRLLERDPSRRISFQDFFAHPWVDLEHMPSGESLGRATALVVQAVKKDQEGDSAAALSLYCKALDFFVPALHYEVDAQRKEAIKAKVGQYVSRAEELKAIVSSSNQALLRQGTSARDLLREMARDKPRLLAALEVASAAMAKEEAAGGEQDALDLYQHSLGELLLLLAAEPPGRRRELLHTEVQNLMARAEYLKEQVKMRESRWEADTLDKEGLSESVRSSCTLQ

Mitogen-activated protein kinase kinase kinase 10 (Homo sapiens), sequence (Q02779 whole entry, looked up): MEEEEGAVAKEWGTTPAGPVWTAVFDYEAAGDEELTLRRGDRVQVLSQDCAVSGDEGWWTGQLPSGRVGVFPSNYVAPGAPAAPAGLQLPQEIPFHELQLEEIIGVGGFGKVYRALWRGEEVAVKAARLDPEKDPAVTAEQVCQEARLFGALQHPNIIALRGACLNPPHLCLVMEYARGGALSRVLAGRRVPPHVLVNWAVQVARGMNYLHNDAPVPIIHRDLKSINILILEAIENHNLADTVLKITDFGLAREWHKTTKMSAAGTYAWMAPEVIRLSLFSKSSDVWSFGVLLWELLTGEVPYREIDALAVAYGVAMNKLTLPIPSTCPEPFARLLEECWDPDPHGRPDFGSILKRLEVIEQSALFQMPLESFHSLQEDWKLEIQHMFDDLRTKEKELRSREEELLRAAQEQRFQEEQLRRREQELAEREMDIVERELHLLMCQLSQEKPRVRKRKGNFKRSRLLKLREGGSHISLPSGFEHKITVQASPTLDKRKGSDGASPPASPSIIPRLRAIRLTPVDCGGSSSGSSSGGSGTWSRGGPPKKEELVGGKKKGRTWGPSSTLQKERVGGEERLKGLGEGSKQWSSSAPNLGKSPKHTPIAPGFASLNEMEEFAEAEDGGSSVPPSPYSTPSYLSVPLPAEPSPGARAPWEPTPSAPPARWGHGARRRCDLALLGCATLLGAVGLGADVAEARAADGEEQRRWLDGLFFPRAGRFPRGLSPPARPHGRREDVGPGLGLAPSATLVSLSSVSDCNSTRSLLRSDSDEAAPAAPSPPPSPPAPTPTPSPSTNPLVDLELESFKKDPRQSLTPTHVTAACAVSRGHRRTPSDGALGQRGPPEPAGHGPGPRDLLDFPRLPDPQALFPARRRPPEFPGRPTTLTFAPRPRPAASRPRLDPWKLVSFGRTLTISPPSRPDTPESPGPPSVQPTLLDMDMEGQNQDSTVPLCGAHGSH

% of inhibition [1]: 106%
SMILES: CC[C@@H]1[C@H](F)C(=O)N[C@@H]1COc1nccc2cc(C(N)=O)c(OC)cc12 [ZIMLOVISERTIB]

% of control [2]: 100%
SMILES: CCN(CC)CCCCNc1ncc2cc(-c3cc(OC)cc(OC)c3)c(NC(=O)NC(C)(C)C)nc2n1

SMILES: CCC(=O)N1CCN(c2ccc(-n3c(=O)ccc4cnc5ccc(-c6cnc7ccccc7c6)cc5c43)cc2C(F)(F)F)CC1
% of control [3]: 100%

SMILES: N#Cc1cccc(-c2c[nH]c3ncnc(N4CCOCC4)c23)c1
% of control [4]: 100%

SMILES: CC(C)(O)[C@H](F)CN1Cc2cc(NC(=O)c3cnn4cccnc34)c(N3CCOCC3)cc2C1=O
dTM [5]: 6.3 K
